MIC, IC50 and LC30 data for 14 molecules are collected here from ChEMBL document CHEMBL3596127, “Design, synthesis and molecular docking of novel bipyrazolyl thiazolone scaffold as a new class of antibacterial agents” (Medchemcomm, 2014).

For data set [1], the system named is Escherichia coli. As to the kind of experiment: Antibacterial activity against Escherichia coli ATCC 35218 after 24 hrs by MTT assay. It counts as functional. Conditions: ATCC 35218, 24 h. A general note: Tetrazolium assays rely on reduction of a dye to a coloured formazan, in cell work by metabolically active cells.
Data set [2] has as its system Staphylococcus aureus. As to the kind of experiment: Antibacterial activity against Staphylococcus aureus ATCC 6538 after 24 hrs by MTT assay. It counts as functional. The note with it: ATCC 6538, 24 h.
The nature of data set [3]: Inhibition of full-length N-terminal His-tagged Escherichia coli FabH expressed in Escherichia coli BL21 (DE3) using acetyl-CoA/[3H]-acetyl-CoA/holo-ACP as substrate by liquid scintillation counting analysis.
Data set [4] relates to Pseudomonas aeruginosa. As to the kind of experiment: Antibacterial activity against Pseudomonas aeruginosa ATCC 13525 after 24 hrs by MTT assay. It counts as functional. The note with it: ATCC 13525, 24 h.
The subject of data set [5] is Bacillus spizizenii. As to the kind of experiment: Antibacterial activity against Bacillus subtilis ATCC 6633 after 24 hrs by MTT assay. The class given is functional. Conditions: ATCC 6633, 24 h.
The nature of data set [6]: Hemolytic activity in RBC (unknown origin). The class given is ADME, cell-based. The note with it: erythrocyte.

Values after ≈ are worked out from the molar mass of the structure shown.

As usually defined, the MIC is the lowest concentration that inhibits growth of the organism. By IC50 is commonly meant the concentration needed to halve the response being measured. Low values mean greater potency in that assay, high ones weaker potency in that assay. Turning to `Cc1nn(-c2ccccc2)c(-n2ccnc2)c1C1CC(c2cccs2)=NN1C1=NC(=O)/C(=C/c2ccco2)S1` (configuration not stated), the MIC in data set [1] was 25 µg/mL (≈ 45.3 µM); in data set [2] it was 6.25 µg/mL (≈ 11.3 µM); in data set [4], over 50 µg/mL; in data set [5] it was 25 µg/mL (≈ 45.3 µM). The IC50 in data set [3] was 12.8 µM. The same molecule displayed an LC30 in data set [6] of over 10000 µg/mL.
As to `Cc1nn(-c2ccccc2)c(-n2cncn2)c1C1CC(c2cccs2)=NN1C1=NC(=O)/C(=C/c2c[nH]c3ccccc23)S1` (configuration not stated), the minimal inhibitory concentration (MIC) in data set [1] was 12.5 µg/mL (≈ 20.8 µM); in data set [2], over 50 µg/mL; in data set [4] it was over 50 µg/mL; in data set [5] it was 25 µg/mL (≈ 41.5 µM). In data set [3], this molecule registered an IC50 of 4.7 µM. This molecule also came in with an LC30 in data set [6] of over 10000 µg/mL.
`Cc1nn(-c2ccccc2)c(-n2ccnc2)c1C1CC(c2cccs2)=NN1C1=NC(=O)/C(=C/c2c[nH]c3ccccc23)S1` (configuration not stated): the MIC in data set [1] turned out to be 6.25 µg/mL (≈ 10.4 µM); in data set [2], 50 µg/mL (≈ 83.2 µM); in data set [4] it was 3.13 µg/mL (≈ 5.21 µM); in data set [5] it was 25 µg/mL (≈ 41.6 µM). Moreover, the IC50 in data set [3] was determined as 3.9 µM. Also, the LC30 in data set [6] is over 10000 µg/mL.
With `Cc1nn(-c2ccccc2)c(-n2cnc3ccccc32)c1C1CC(c2cccs2)=NN1C1=NC(=O)/C(=C/c2c[nH]c3ccccc23)S1` (configuration not stated), the MIC in data set [1] came out at 3.13 µg/mL (≈ 4.81 µM); in data set [2], 50 µg/mL (≈ 76.8 µM); in data set [4], 12.5 µg/mL (≈ 19.2 µM); in data set [5], 12.5 µg/mL (≈ 19.2 µM). The IC50 in data set [3] is 2.5 µM. In data set [6], this molecule returned an LC30 of over 10000 µg/mL.
Take `Cc1nn(-c2ccccc2)c(-n2nnc3ccccc32)c1C1CC(c2cccs2)=NN1C1=NC(=O)/C(=C/c2c[nH]c3ccccc23)S1` (configuration not stated): the MIC in data set [1] was 3.13 µg/mL (≈ 4.8 µM); in data set [2], 25 µg/mL (≈ 38.4 µM); in data set [4] it was 6.25 µg/mL (≈ 9.59 µM); in data set [5], over 50 µg/mL. Besides, it took 3.1 µM to reach half-maximal inhibition in data set [3] (IC50). The LC30 in data set [6] is over 10000 µg/mL.
For the molecule `Cc1nn(-c2ccccc2)c(-n2cncn2)c1C1CC(c2cccs2)=NN1C1=NC(=O)/C(=C/c2cccs2)S1` (configuration not stated), the MIC was found to be 25 µg/mL (≈ 44 µM) in data set [1], 6.25 µg/mL (≈ 11 µM) in data set [2], 50 µg/mL (≈ 87.9 µM) in data set [4] and 25 µg/mL (≈ 44 µM) in data set [5]. The 50% inhibitory concentration (IC50) in data set [3] worked out at 15.6 µM. In data set [6], this molecule gave an LC30 of over 10000 µg/mL.
With `Cc1nn(-c2ccccc2)c(-n2ccnc2)c1C1CC(c2cccs2)=NN1C1=NC(=O)/C(=C/c2cccs2)S1` (configuration not stated), the MIC in data set [1] was over 50 µg/mL; in data set [2], 25 µg/mL (≈ 44 µM); in data set [4] it was 25 µg/mL (≈ 44 µM); in data set [5] it was over 50 µg/mL. Besides, the half-inhibitory concentration (IC50) in data set [3] amounted to 11.3 µM. In addition, the LC30 in data set [6] was over 10000 µg/mL.
As to `Cc1nn(-c2ccccc2)c(-n2cnc3ccccc32)c1C1CC(c2cccs2)=NN1C1=NC(=O)/C(=C/c2cccs2)S1` (configuration not stated), the MIC in data set [1] was found to be 25 µg/mL (≈ 40.5 µM); in data set [2] it was 25 µg/mL (≈ 40.5 µM); in data set [4] it was 25 µg/mL (≈ 40.5 µM); in data set [5] it was 3.13 µg/mL (≈ 5.07 µM). The same molecule returned an IC50 in data set [3] of 9.1 µM. The LC30 in data set [6] was over 10000 µg/mL.
Regarding `Cc1nn(-c2ccccc2)c(-n2nnc3ccccc32)c1C1CC(c2cccs2)=NN1C1=NC(=O)/C(=C/c2cccs2)S1` (configuration not stated), the minimum inhibitory concentration (MIC) in data set [1] was 50 µg/mL (≈ 80.8 µM); in data set [2], over 50 µg/mL; in data set [4], 6.25 µg/mL (≈ 10.1 µM); in data set [5] it was 12.5 µg/mL (≈ 20.2 µM). In data set [3], the 50% inhibitory concentration (IC50) was 17.5 µM. In data set [6], this molecule had an LC30 of over 10000 µg/mL.
With `Cc1nn(-c2ccccc2)c(-n2cncn2)c1C1CC(c2cccs2)=NN1C1=NC(=O)/C(=C/c2ccco2)S1` (configuration not stated), the minimum inhibitory concentration (MIC) in data set [1] is 50 µg/mL (≈ 90.5 µM); in data set [2], over 50 µg/mL; in data set [4], 50 µg/mL (≈ 90.5 µM); in data set [5], 25 µg/mL (≈ 45.2 µM). The molecule also came in with an IC50 in data set [3] of 26.1 µM. The LC30 in data set [6] was over 10000 µg/mL.
With `Cc1nn(-c2ccccc2)c(-n2cnc3ccccc32)c1C1CC(c2cccs2)=NN1C1=NC(=O)/C(=C/c2ccco2)S1` (configuration not stated), the MIC in data set [1] was over 50 µg/mL; in data set [2] it was 12.5 µg/mL (≈ 20.8 µM); in data set [4] it was over 50 µg/mL; in data set [5], 6.25 µg/mL (≈ 10.4 µM). In addition, in data set [3], the half-inhibitory concentration (IC50) worked out at 8.5 µM. The molecule further came in with an LC30 in data set [6] of over 10000 µg/mL.
`Cc1nn(-c2ccccc2)c(-n2nnc3ccccc32)c1C1CC(c2cccs2)=NN1C1=NC(=O)/C(=C/c2ccco2)S1` (configuration not stated): the minimum inhibitory concentration (MIC) in data set [1] was over 50 µg/mL; in data set [2] it was 50 µg/mL (≈ 83 µM); in data set [4] it was 6.25 µg/mL (≈ 10.4 µM); in data set [5] it was over 50 µg/mL. Further, half-maximal inhibition in data set [3] (IC50) required 21.9 µM. This molecule had an LC30 in data set [6] of over 10000 µg/mL.
For the molecule `NC[C@H]1O[C@H](O[C@H]2[C@H](O)[C@@H](O[C@H]3O[C@H](CO)[C@@H](O)[C@H](N)[C@H]3O)[C@H](N)C[C@@H]2N)[C@H](N)[C@@H](O)[C@@H]1O` [BEKANAMYCIN], the MIC in data set [1] is 1.56 µg/mL (≈ 3.23 µM); in data set [2] it was 1.56 µg/mL (≈ 3.23 µM); in data set [4], 3.13 µg/mL (≈ 6.47 µM); in data set [5], 0.39 µg/mL (≈ 0.807 µM). In data set [3], this molecule registered an IC50 of 6.3 µM. The molecule further came in with an LC30 in data set [6] of over 10000 µg/mL.
As to `CC1(C)S[C@@H]2[C@H](NC(=O)Cc3ccccc3)C(=O)N2[C@H]1C(=O)O` [PENICILLIN G], the MIC came out at 3.13 µg/mL (≈ 9.36 µM) in data set [1], 6.25 µg/mL (≈ 18.7 µM) in data set [2], 6.25 µg/mL (≈ 18.7 µM) in data set [4] and 1.56 µg/mL (≈ 4.67 µM) in data set [5].
